The source made the active and inactive calls.
Key:
[1] = molecular target: Dual specificity tyrosine-phosphorylation-regulated kinase 1A (Rattus norvegicus, UniProt Q63470); type: biochemical, Homo sapiens
[2] = THP-1 cell cytotoxicity, dose response, cytotoxicity control for non-replicating M. tuberculosis project (AID 489025); type: functional
[3] = test system: HEK293; experiment: cytotoxicity in HEK293T NF-kB-Luc cells, SAR follow-up, cytotoxicity control for NF-kB activator project, cell-based, resazurin fluorescence (AID 493251); type: functional; conditions: Homo sapiens
[4] = molecular target: T1, Microphthalmia-associated transcription factor (Homo sapiens, UniProt O75030); experiment: TRPM1 promoter luciferase signal decrease, dose response, MITF inhibitor project, cell-based, SK-MEL-5, cherry-picked, set 3 (AID 493073); type: functional
T1 sequence (O75030 whole entry): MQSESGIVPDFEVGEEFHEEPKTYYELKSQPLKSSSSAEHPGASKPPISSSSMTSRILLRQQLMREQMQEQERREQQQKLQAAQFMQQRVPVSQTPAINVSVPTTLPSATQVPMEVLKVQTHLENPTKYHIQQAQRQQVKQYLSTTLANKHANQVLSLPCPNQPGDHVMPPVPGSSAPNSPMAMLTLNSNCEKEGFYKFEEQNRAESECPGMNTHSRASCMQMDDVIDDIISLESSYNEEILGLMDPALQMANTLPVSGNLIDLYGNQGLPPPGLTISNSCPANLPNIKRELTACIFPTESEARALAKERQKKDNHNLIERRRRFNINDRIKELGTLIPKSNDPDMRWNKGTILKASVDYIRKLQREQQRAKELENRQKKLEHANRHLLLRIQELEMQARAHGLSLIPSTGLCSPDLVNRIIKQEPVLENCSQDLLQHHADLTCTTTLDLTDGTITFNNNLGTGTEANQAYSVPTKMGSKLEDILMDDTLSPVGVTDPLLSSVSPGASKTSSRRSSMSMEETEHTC

[5] = Vero E6 cell cytotoxicity, dose response, cytotoxicity control for non-replicating M. tuberculosis project, secondary assay (AID 492998); type: functional, VeroE6; conditions: Vero C1008
[6] = test system: HEK293; experiment: SAR Analysis of small molecule inhibitors of T-cell specific antigen receptor-induced NF-kB activation in a HEK-293T cell line using a luminescence assay - Set 2. [Related pubchem assays (depositor defined):AID435003, AID435012, AID489026]; type: functional, cell-based
[7] = test system: Jurkat; experiment: SAR Analysis of small molecule inhibitors of T-cell specific antigen receptor-induced NF-kB activation in a Jurkat cell line using a luminescence assay - Set 2. [Related pubchem assays (depositor defined):AID435003, AID435012, AID465]; type: functional, cell-based
[8] = cells; type: functional
[9] = molecular target: T2, Replicative DNA helicase DnaB (Mycobacterium tuberculosis, UniProt P9WMR3); experiment: DnaB intein splicing inhibitors, dose response, biochemical, cell-free fluorescence (AID 449749); type: functional
T2 sequence (P9WMR3 whole entry): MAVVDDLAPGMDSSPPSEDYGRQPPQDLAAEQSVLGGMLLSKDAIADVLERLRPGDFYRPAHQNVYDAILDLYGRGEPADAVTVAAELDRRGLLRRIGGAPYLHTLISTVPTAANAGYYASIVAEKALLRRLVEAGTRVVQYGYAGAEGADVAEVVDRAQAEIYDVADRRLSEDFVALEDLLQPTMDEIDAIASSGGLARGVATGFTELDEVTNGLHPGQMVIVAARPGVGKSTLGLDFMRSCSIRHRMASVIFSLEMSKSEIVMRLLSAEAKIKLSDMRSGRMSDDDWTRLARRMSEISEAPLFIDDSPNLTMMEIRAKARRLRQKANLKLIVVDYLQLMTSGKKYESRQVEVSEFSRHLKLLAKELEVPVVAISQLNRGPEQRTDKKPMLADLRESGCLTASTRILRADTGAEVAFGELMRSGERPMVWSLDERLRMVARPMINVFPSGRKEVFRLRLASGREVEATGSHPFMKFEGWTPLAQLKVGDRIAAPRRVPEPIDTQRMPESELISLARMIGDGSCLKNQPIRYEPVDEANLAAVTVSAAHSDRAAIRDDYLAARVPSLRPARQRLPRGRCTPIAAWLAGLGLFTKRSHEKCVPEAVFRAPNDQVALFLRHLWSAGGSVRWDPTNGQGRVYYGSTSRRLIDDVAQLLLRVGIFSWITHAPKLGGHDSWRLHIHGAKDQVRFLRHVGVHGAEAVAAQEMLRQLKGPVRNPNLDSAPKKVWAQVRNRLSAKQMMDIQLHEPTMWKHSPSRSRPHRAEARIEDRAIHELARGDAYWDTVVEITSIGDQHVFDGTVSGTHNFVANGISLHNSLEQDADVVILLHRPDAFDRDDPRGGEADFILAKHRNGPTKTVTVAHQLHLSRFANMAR

[10] = test system: HEK293; experiment: cells; type: functional, cell-based; conditions: Homo sapiens
[11] = test system: HEK293; experiment: cells; conditions: Homo sapiens
[12] = test system: HEK293; experiment: cells; type: functional, cell-based; conditions: Homo sapiens; remark: listed apart in the source
[13] = test system: HEK293; experiment: cells; conditions: Homo sapiens; remark: listed apart in the source
[14] = test system: HEK293; experiment: NOD1 signaling inhibitors, primary screen, cell-based, luminescence, uHTS (AID 1578); type: functional; conditions: Homo sapiens
[15] = molecular target: T3, Protein RecA (Mycobacterium tuberculosis, UniProt P9WHJ3); experiment: Fluorescence Cell-Free Homogeneous Dose Retest to Identify Inhibitors of RecA-Intein Splicing Activity. [Related pubchem assays (depositor defined):AID2097, AID2223, AID489010, AID492950]; type: functional
T3 sequence (P9WHJ3 whole entry): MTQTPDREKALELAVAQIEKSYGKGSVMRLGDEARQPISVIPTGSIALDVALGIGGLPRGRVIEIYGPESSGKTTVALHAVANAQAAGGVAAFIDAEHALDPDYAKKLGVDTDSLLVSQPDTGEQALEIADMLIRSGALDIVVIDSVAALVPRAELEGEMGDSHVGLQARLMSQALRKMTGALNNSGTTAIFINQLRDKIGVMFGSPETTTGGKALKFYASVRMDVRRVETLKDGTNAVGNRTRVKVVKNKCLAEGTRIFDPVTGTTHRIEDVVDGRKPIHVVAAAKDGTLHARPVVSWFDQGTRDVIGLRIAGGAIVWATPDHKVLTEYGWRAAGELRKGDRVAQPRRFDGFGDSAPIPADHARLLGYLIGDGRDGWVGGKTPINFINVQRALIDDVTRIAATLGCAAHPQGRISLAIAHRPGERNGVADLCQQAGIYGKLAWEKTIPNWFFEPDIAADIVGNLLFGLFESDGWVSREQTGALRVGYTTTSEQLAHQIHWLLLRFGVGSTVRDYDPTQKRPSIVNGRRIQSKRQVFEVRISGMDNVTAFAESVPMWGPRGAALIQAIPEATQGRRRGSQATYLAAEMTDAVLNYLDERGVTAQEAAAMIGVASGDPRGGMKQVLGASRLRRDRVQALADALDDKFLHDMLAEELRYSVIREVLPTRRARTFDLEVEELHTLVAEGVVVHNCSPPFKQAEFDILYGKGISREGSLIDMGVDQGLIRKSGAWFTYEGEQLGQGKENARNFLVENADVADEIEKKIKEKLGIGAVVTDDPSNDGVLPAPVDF

[16] = test system: HEK293; experiment: NOD2 signaling inhibitors in MDP-stimulated cells, cell-based, uHTS, luminescence (AID 2001); type: functional; conditions: Homo sapiens
[17] = inhibitors of HIV Env-driven cell fusion, dose response, cherry-pick (AID 652057); type: functional, cell-based
[18] = off-target signal loss in HeLa-CEM21 co-culture – HeLa F-luc CTL cells, cherry-picked, counter-screen for HIV-1 Env fusion inhibitor project, dose response (AID 652040); type: functional, cell-based;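 also: potency for signal decrease marking cytotoxic or nonspecific inhibition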
[19] = inhibitors of clade B AD8 Env fusion, dose response, cell-based, cherry-pick (AID 652062); type: functional;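 also: luciferase signal from cell-cell fusion driven by HIV-1 clade B AD8 Env; potency is for inhibitors of fusion seen as a drop in luminescence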
[20] = ZM109 Env clade C HIV-1 fusion inhibitors, dose response, HeLa effector, CEM target cells, luciferase, cherry-pick (AID 652058); type: functional, cell-based
[21] = molecular target: T4, Tyrosine-protein phosphatase non-receptor type 7 (Homo sapiens, UniProt P35236); type: functional
T4 sequence (P35236 whole entry): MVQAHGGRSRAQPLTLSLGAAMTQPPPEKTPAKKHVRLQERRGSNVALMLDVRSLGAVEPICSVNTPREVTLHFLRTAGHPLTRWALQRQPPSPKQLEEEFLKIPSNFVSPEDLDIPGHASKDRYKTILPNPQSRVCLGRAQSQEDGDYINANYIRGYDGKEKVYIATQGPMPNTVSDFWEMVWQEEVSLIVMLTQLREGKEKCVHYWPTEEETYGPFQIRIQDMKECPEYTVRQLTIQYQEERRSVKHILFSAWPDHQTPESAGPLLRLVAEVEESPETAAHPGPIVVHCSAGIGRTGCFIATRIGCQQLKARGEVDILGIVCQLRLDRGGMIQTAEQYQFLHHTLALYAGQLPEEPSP

[22] = molecular target: Heat shock 70 kDa protein 1A (Homo sapiens, UniProt P0DMV8); experiment: Hsp70 inhibitors, SAR follow-up, biochemical, fluorescence polarization (AID 1072)
[23] = molecular target: Glyceraldehyde-3-phosphate dehydrogenase (Homo sapiens, UniProt P04406)
[24] = molecular target: T5, Dual specificity protein phosphatase 6 (Rattus norvegicus, UniProt Q64346); type: functional
T5 sequence (Q64346 whole entry): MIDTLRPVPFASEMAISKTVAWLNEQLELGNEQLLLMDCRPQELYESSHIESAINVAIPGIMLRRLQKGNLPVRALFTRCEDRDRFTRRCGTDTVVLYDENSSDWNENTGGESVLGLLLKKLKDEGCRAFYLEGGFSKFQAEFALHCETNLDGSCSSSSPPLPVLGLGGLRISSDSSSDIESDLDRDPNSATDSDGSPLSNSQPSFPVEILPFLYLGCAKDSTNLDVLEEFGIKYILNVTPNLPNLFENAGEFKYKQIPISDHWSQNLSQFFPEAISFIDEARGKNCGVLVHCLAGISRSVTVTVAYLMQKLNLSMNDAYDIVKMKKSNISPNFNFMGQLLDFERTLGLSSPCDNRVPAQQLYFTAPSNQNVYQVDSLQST

[25] = molecular target: T5, Dual specificity protein phosphatase 6
[26] = molecular target: Heat shock cognate 71 kDa protein (Homo sapiens, UniProt P11142); experiment: In Vitro Hsc70 Dose Response Fluorescence Polarization Assay. [Related pubchem assays: 1072 ]
[27] = cytotoxicity toward DRD oncogenic fibroblasts, dose response, cell-based, non-viral oncogenic, luminescence (AID 1934); type: functional; conditions: Homo sapiens
[28] = test system: BJ; experiment: cells; type: functional, cell-based; conditions: Homo sapiens
[29] = test system: BJ; experiment: cytotoxicity toward BJ-TERT fibroblasts, dose response, cell-based, RAS-independent, luminescence (AID 1933); type: functional; conditions: Homo sapiens
[30] = cytotoxicity in MIN6 insulinoma cells, dose response, cytotoxicity control, cell-based, mouse insulinoma (AID 2122); type: functional;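 also: confirmatory high-throughput counterscreen run to flag cytotoxic compounds; mouse MIN-6 beta cells carrying an insulin promoter eGFP reporter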
[31] = Luminescence Cell-Based Dose Retest to Confirm Inhibitors of Cancer Stem Cells. [Related pubchem assays (depositor defined):AID2717, AID2721]; type: functional; conditions: Homo sapiens
[32] = insulin promoter down-regulators in MIN6 cells, imaging, high-content screening, mouse beta cells (AID 1628); type: functional
[33] = test system: INS1; experiment: beta cell apoptosis inhibitors, cytokine rescue, dose response, luminescence, retest (AID 449756); type: functional, cell-based; conditions: Rattus norvegicus;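 also: cell death triggered by IL-1 beta plus TNF-alpha plus IFN-gamma mixture; protective hits raise ATP signal compared with cytokine alone wells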

Glyceraldehyde-3-phosphate dehydrogenase, sequence (P04406 whole entry): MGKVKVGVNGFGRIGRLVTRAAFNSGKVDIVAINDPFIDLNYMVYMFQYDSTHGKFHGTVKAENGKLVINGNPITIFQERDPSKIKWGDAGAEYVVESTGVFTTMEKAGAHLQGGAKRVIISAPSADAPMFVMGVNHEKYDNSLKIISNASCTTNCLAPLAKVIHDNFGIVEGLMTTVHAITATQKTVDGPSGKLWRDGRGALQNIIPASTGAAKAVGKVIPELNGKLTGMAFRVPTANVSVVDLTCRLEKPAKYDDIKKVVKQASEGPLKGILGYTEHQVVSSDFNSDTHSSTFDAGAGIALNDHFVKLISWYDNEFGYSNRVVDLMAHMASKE
Heat shock 70 kDa protein 1A, sequence (P0DMV8 whole entry): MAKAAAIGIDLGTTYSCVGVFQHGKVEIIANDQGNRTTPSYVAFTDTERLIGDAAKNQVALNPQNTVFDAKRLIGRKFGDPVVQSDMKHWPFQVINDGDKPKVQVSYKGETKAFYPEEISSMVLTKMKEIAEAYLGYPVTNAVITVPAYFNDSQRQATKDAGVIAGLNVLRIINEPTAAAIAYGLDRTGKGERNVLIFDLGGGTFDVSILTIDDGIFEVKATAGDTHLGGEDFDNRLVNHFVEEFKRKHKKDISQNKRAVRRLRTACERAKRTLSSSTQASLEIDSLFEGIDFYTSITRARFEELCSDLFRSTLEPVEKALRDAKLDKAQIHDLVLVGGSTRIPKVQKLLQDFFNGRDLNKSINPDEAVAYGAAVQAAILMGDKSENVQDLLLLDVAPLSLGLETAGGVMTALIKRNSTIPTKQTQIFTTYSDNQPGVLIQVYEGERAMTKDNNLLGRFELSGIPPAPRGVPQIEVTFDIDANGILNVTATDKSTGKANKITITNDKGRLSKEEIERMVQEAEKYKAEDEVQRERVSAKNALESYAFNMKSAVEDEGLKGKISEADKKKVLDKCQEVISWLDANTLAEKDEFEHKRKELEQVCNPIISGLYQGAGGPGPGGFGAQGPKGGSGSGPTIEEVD
Heat shock cognate 71 kDa protein, sequence (P11142 whole entry): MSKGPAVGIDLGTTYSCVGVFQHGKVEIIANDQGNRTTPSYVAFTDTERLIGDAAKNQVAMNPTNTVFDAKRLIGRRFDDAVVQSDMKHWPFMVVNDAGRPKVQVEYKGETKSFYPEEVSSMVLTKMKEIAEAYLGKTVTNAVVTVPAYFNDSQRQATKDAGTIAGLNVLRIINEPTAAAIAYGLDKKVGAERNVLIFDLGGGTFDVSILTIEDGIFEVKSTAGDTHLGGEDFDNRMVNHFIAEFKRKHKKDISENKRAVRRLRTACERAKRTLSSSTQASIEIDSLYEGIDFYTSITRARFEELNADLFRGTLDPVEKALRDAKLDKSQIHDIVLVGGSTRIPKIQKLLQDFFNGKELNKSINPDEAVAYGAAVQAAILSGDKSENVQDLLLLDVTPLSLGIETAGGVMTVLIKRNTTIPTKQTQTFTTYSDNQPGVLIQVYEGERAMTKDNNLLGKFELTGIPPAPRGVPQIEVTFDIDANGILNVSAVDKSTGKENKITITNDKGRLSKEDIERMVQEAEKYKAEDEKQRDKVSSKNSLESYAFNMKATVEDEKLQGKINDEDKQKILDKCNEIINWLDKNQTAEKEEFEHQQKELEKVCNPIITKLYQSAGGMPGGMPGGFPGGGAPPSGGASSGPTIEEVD

c1cncc(-c2nc3ccccc3[nH]2)c1
AC50 [1]: > 120 µM (inactive)

Cc1cccc(NC(=O)c2ccc([N+](=O)[O-])o2)c1C
CC50 [2]: 20.5 µM (active) | IC50 [3]: > 80 µM (inactive) | AC50 [4]: 14.8 µM (active) | CC50 [5]: 8.76 µM (active) | IC50 ([6]; Homo sapiens, HEK293): 69.2 µM (inactive) | IC50 ([6]; hek293): 63.1 µM (inactive) | IC50 ([7]; Homo sapiens, Jurkat): 17.8 µM (active) | IC50 ([7]; jurkat): 14.6 µM (active) | IC50 [8]: 10.8 µM (active)

O=C(CCl)Nc1cc(S(=O)(=O)N2CCCCCC2)ccc1Cl
AC50 [9]: 9.12 µM (active) | IC50 [10]: > 20 µM (inactive) | EC50 [11]: > 59.6 µM (inactive) | IC50 [12]: 7.86 µM (active) | EC50 [13]: > 59.6 µM (inactive) | EC50 [14]: 9.38 µM (active) | EC50 [15]: 2.03 µM (active) | IC50 [16]: > 20 µM (inactive)

CCN1C(=O)[C@H]2[C@@H](c3ccc(C)cc3)N3C(=O)N(c4cccc(Cl)c4)C(=O)[C@@]3(CC)[C@H]2C1=O
AC50 [17]: 2.33 µM (active) | AC50 [18]: 3.98 µM (active) | EC50 [11]: > 59.6 µM (inactive) | AC50 [19]: 4.82 µM (active) | EC50 [13]: > 59.6 µM (inactive) | AC50 [20]: 2.06 µM (active)

O=C(O)C1Nc2ccccc2C2C=CCC12 (stereo not drawn)
IC50 [21]: 6.05 µM (active) | IC50 [22]: 7.14 µM (active) | IC50 [23]: > 100 µM (not active) | IC50 [24]: 25.2 µM (active) | IC50 [25]: 50.8 µM (active) | IC50 [26]: > 100 µM (not active)

COc1ccc(C)cc1NS(=O)(=O)c1ccc(NC(=O)CN(c2cc([N+](=O)[O-])ccc2C)S(C)(=O)=O)cc1
EC50 [27]: 19.7 µM (active) | EC50 [28]: 2.75 µM (active) | EC50 [29]: 21 µM (active) | IC50 [30]: 1.2 µM (active) | AC50 [31]: 1.8 µM (active) | IC50 [32]: 1.1 µM (active) | AC50 [33]: 846 nM (active)

Cc1cc([N+](=O)[O-])cc2c1NC(C(=O)O)C1CC=CC21 (stereo not drawn)
IC50 [21]: > 100 µM (not active) | IC50 [22]: 24.3 µM (active) | IC50 [23]: > 100 µM (not active) | IC50 [24]: > 100 µM (inactive) | IC50 [25]: > 100 µM (inactive) | IC50 [26]: 117 µM (active)

Source: ChEMBL document CHEMBL1201862, “PubChem BioAssay data set” (2004)
